Data on 11 compounds can be found in EP1078634A1, “Medicament for inhibiting NF-kB” (Max Zeller Söhne AG, priority 1999, dated 2001).

The test system of one experiment is NF-kB. The experiment can be described thus: NF-kB binding to DNA, electrophoretic mobility shift assay (EMSA) with Jurkat T cells. Type of experiment: cell-based. Particulars: TNF-a stimulation. An excerpt: Die in Beispiel 2 hergestellten Substanzen wurden in zellfreien und zellulären Testsystemen nach bekannten Methoden auf NF-kB hemmende Wirkung geprüft. […] Bestimmt wurde die in-vivo und die in-vitro NF-kB Bindung an DNA durch Messung der elektrophoretischen Mobilitätsverschiebung.
Die in vivo Bindung wurde mit Jurkat T-Zellen durchgeführt. Die Zellen wurden während einer Stunde mit verschiedenen Konzentrationen der verschiedenen Extrakte inkubiert und anschliessend mit TNF-a während einer Stunde stimuliert. Total-Protein-Extrakte der Zellen wurden gewonnen und in einem Assay auf elektrophoretische Mobilitätsverschiebung (electrophoretic mobility shift asasy, EMSA) auf NF-kB-bindende Aktivität geprüft.
Die in vitro Bindung wurde ebenfalls mit Jurkat T-Zellen geprüft. Zellextrakte von stimulierten wie unstimulierten Zellen wurden gewonnen. Gleiche Proteinmengen (10-20 µg) wurden 2 Stunden mit Konzentrationsreihen der verschiedenen Isatis-Extrakte inkubiert und schliesslich auf elektrophoretische Mobilitätsverschiebung (EMSA) analysiert.

In the next experiment the target is T1, COX-2 (Homo sapiens, UniProt P35354).
T1 construct: Dabei wurden Mono Mac 6-Zellen mit unterschiedlichen Konzentrationen der Testsubstanzen während 30 min inkubiert; endogenous in cells; host or cells: Mono Mac 6 cells, LPS-stimulated
T1 sequence (P35354 18-604): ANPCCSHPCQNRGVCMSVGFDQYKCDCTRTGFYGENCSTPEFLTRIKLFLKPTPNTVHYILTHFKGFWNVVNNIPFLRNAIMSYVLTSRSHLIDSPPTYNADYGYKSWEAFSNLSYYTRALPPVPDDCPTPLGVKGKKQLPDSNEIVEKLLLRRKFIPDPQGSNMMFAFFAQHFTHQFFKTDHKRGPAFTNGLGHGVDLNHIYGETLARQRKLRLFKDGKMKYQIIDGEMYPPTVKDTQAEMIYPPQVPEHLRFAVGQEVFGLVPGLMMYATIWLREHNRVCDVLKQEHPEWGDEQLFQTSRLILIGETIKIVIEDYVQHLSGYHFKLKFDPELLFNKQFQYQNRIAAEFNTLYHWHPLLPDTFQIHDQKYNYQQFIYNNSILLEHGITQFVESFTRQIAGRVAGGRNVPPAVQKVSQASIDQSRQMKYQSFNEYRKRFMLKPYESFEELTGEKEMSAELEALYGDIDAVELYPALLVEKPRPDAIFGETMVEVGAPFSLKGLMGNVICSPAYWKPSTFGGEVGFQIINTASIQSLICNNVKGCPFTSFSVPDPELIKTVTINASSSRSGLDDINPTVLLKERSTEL
The experiment is described as follows: COX-2 inhibition in LPS-stimulated Mono Mac 6 cells (Keto PGF 1α ELISA, method of Berg et al.). Format: cell-based. Particulars: COX-2 versus COX-1, in words. On the procedure:
Die Bestimmung der COX-2 inhibitorischen Wirkung der gemäss Beispiel 2 synthetisierten Verbindungen wurde mit Mono Max 6-Zellen nach der Methode von Berg et al., J. Pharmaco. Toxicol.
Dabei wurden Mono Mac 6-Zellen mit unterschiedlichen Konzentrationen der Testsubstanzen während 30 min inkubiert, anschliessend Lipopolysaccharid (LPS, 100 ng/ml) zupipettiert und während weiteren 6 Stunden inkubiert. Anschliessend wurde Arachidonsäure zugegeben (Endkonz. 30 µM), während 15 Min. inkubiert und das gebildete Keto PGF 1α mittels ELISA bestimmt.
In einer Variante wurden Testsubstanz und LPS zeitgleich eingesetzt. Die Messung der COX1 Hemmung erfolgte in HEL-Zellen nach der Methode von Berg et al., J. Pharmacol. Toxicol. […] Dabei wurden HEL Zellen mit unterschiedlichen Konzentrationen der Testsubstanzen während 30 Min. inkubiert, anschliessend Arachidonsäure zugesetzt (Endkonz. 30 uM), während 15 Min. inkubiert und das gebildete Tromboxan B2 mittels ELISA gemessen.

SMILES strings stand for the structures. Some results are limits rather than exact numbers.

Consider `CN(CCO)c1ccc2c(=O)n3c(nc2c1)C(=O)c1cc(OC(F)(F)F)ccc1-3` [Verbindung 110], for which, in the experiment on NF-kB, the “NF-kB: Grenzkonzentration, bei der eben noch ein Hemmeffekt im EMSA feststellbar ist” value (shortened to “NF-kB: Grenzkonzentration”) came out at 5 µM/Liter.

Consider `O=C1c2cc(Cl)ccc2-n2c1nc1ccccc1c2=O` [Verbindung 10], for which the “NF-kB: Grenzkonzentration” value with NF-kB worked out at 5 µM/Liter.

As for `CCOC(=O)c1ccc2c(c1)C(=O)c1nc3ccccc3c(=O)n1-2` [Verbindung 37], the “NF-kB: Grenzkonzentration” value in the experiment with NF-kB is given as >100 µM/Liter.

On to `O=C1c2cc(Cl)ccc2-n2c1nc1cc(N3CCOCC3)ccc1c2=O` [Verbindung 86], for which the “präferentielle Hemmung der induzierbaren COX-2” value at COX-2 is “deutliche präferentielle Hemmung der induzierbaren COX-2”. Moreover, the “NF-kB: Grenzkonzentration” value in the experiment on NF-kB is listed as 0,5 µM/Liter.

Take `CCCCCCCCS(=O)(=O)c1ccc2c(c1)C(=O)c1nc3c(OC)cccc3c(=O)n1-2` [Verbindung 69]: the “NF-kB: Grenzkonzentration” value in the experiment on NF-kB is on record as >100 µM/Liter.

With `CN(CC(=O)O)c1ccc2c(=O)n3c(nc2c1)C(=O)c1cc(Cl)ccc1-3` [Verbindung 99], the “NF-kB: Grenzkonzentration” value with NF-kB is 1 µM/Liter.

Regarding `CN1CCN(c2ccc3c(=O)n4c(nc3c2)C(=O)c2cc(F)ccc2-4)CC1` [Verbindung 32], in the experiment on NF-kB, the “NF-kB: Grenzkonzentration” value is given as 10 µM/Liter.

With `Cc1cc(C)c2nc3n(c(=O)c2c1)-c1ccc(F)cc1C3=O` [Verbindung 24], the “NF-kB: Grenzkonzentration” value in the experiment with NF-kB is recorded as >100 µM/Liter.

On to `Nc1ccc2nc3n(c(=O)c2c1)-c1ccc(F)cc1C3=O` [Verbindung 20], for which the “NF-kB: Grenzkonzentration” value in the experiment on NF-kB is on record as 5 µM/Liter.

Turning to `CC1CN(c2cc3c(cc2F)C(=O)c2nc4ccccc4c(=O)n2-3)CCN1C(=O)OC(C)(C)C` (stereo not drawn) [Verbindung 42], the “NF-kB: Grenzkonzentration” value in the experiment on NF-kB is recorded as >100 µM/Liter.

Take `O=C1c2ccccc2-n2c1nc1ccc(Cl)cc1c2=O` [Verbindung 5]: the “NF-kB: Grenzkonzentration” value in the experiment on NF-kB is listed as 50 µM/Liter.
